Laboratory results taken from ChEMBL document CHEMBL4616600, “Synthesis and cytotoxic evaluation of halogenated α-exo-methylene-lactones” (Bioorg Med Chem, 2020).

Columns and labels:
[1] = Antiproliferative activity against human H1975-1 harboring EGFR L858R/T790M mutant measured after 72 hrs by sulforhodamine B assay; type: functional
[2] = test system: A-431; test: Antiproliferative activity against human A431 wild type cells measured after 72 hrs by Sulforhodamine B assay; type: functional, cell-based; details: A-431, 72 h
[3] = test system: L02; test: Cytotoxicity against human HL7702 cells measured after 72 hrs by sulforhodamine B assay; type: cell-based; details: L02, 72 h
[4] = target: Epidermal growth factor receptor (Homo sapiens, UniProt P00533, L858R/T790M); test: Inhibition of EGFR L858R/T790M (unknown origin)
Epidermal growth factor receptor (Homo sapiens, UniProt P00533, L858R/T790M), sequence (P00533 25-1210 T790M/L858R limits assumed): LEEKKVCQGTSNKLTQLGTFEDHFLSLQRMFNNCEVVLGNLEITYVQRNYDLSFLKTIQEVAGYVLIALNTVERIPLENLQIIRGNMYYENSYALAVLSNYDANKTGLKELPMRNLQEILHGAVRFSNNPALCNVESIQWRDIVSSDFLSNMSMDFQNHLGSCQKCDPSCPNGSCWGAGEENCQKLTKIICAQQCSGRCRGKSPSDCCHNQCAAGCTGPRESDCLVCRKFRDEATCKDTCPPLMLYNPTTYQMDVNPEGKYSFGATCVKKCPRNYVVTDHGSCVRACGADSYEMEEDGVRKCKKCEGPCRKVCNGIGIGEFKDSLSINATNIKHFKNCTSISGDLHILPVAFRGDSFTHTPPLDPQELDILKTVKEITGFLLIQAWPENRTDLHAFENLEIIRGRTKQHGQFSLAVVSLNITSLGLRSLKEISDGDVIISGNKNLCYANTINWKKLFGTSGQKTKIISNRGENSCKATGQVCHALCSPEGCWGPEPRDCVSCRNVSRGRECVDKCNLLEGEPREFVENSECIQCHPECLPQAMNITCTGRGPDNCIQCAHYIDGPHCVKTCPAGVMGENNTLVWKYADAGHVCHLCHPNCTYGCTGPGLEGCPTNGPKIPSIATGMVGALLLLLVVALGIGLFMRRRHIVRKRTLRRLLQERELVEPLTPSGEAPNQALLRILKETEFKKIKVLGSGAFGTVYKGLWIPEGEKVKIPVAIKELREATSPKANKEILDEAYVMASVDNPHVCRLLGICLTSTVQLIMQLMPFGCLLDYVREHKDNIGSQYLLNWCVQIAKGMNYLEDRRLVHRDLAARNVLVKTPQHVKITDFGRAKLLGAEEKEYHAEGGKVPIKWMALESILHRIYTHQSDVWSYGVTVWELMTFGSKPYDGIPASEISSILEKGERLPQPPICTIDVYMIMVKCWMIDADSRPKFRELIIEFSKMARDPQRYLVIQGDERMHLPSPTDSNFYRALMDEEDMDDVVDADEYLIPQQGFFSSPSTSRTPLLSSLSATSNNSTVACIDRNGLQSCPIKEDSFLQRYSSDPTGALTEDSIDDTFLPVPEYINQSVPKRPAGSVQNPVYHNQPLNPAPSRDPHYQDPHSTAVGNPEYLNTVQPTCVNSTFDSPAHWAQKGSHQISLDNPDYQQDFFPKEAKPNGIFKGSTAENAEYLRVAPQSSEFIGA

[5] = test system: HCC827; test: Antiproliferative activity against human HCC827 cells measured after 72 hrs by sulforhodamine B assay; type: functional, cell-based; details: HCC827, 72 h
[6] = test system: A549; test: Antiproliferative activity against human A549 cells measured after 72 hrs by sulforhodamine B assay; type: functional, cell-based; details: A549, 72 h
[7] = target: Epidermal growth factor receptor (Homo sapiens, UniProt P00533); test: Inhibition of wild type EGFR (unknown origin)
Epidermal growth factor receptor (Homo sapiens, UniProt P00533), sequence (P00533 whole entry): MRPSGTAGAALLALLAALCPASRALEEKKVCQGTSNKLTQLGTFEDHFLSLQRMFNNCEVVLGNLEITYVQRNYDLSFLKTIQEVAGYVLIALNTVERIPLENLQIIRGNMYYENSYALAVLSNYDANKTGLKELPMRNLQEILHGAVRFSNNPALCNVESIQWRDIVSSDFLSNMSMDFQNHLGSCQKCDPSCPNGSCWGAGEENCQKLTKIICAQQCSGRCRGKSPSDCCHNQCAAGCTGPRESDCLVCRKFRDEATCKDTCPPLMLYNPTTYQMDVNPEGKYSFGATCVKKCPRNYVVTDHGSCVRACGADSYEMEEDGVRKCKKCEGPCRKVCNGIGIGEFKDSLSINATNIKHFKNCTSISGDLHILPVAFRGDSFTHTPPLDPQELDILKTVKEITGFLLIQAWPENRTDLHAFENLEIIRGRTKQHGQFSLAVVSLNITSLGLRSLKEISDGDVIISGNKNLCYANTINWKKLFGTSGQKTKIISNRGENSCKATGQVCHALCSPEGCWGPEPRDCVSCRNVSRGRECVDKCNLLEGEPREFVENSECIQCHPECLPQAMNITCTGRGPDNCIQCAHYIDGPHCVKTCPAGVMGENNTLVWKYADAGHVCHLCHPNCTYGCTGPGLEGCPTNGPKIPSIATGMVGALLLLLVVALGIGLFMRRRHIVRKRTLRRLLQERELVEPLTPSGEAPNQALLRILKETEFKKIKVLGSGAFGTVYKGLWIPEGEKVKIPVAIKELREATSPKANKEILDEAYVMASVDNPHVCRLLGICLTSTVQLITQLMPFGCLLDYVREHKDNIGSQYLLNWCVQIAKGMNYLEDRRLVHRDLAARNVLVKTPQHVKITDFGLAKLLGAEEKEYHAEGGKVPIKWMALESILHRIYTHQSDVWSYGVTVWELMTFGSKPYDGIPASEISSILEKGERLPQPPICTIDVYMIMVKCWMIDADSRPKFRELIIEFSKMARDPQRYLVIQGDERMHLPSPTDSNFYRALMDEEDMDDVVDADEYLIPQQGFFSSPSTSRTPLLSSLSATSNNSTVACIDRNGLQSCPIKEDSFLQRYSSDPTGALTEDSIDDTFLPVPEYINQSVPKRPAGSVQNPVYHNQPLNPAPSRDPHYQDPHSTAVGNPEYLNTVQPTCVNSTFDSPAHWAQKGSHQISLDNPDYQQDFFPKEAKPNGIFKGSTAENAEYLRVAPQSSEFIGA

| IC50 [2] | IC50 [4] | IC50 [5] | IC50 [6] | IC50 [7] | Structure (SMILES) | IC50 [1] | IC50 [3] |
| --- | --- | --- | --- | --- | --- | --- | --- |
| 2770 nM | – | – | – | – | C=C1CC(c2ccccc2)(C(Cl)c2ccccc2)OC1=O (racemic) | 1260 nM | – |
| 5500 nM | – | – | – | – | C=C1CC(CBr)(c2ccccc2C)OC1=O (racemic) | 3500 nM | – |
| 1900 nM | 15 µM | 1100 nM | 1210 nM | 24 µM | C=C1CC(CI)(c2ccc(F)cc2)OC1=O (racemic) | 600 nM | 1200 nM |
| 2720 nM | 26 µM | 2200 nM | 1980 nM | 47 µM | C=C1CC(CI)(c2ccccc2)OC1=O (racemic) | 650 nM | 2200 nM |
| 4500 nM | – | – | – | – | C=C1CC(CBr)(c2cccc(C)c2)OC1=O (racemic) | 1200 nM | – |
| 1010 nM | – | – | – | – | C=C1CC(CBr)(c2ccc(C(F)(F)F)cc2)OC1=O (racemic) | 1940 nM | – |
| 2 nM | – | – | – | – | CC(=O)O[C@H]1C(=O)[C@@]2(C)[C@H]([C@H](OC(=O)c3ccccc3)[C@]3(O)C[C@H](OC(=O)[C@H](O)[C@@H](NC(=O)c4ccccc4)c4ccccc4)C(C)=C1C3(C)C)[C@]1(OC(C)=O)CO[C@@H]1C[C@@H]2O [PACLITAXEL] | 3 nM | – |
| 5240 nM | – | – | – | – | C=C1CC(c2ccccc2)(C(C)Br)OC1=O (racemic) | 1660 nM | – |
| 21200 nM | – | – | – | – | C=C1CN(S(=O)(=O)c2ccc([N+](=O)[O-])cc2)CC(CBr)(c2ccccc2)OC1=O (racemic) | 24200 nM | – |
| 4190 nM | 14 µM | 1000 nM | 1370 nM | 29 µM | C=C1CC(c2ccccc2)(C(Br)c2ccccc2)OC1=O (racemic) | 250 nM | 960 nM |
| 2500 nM | – | – | – | – | C=C1C[C@@]2(CCCc3ccccc3[C@@H]2Br)OC1=O | 1000 nM | – |
| 2200 nM | – | – | – | – | C=C1CC[C@@](CBr)(c2ccccc2)OC1=O | 1620 nM | – |
| 2570 nM | – | – | – | – | C=C1C(=O)O[C@@H]2C3O[C@]3(C)CC/C=C(\C)CC[C@@H]12 (stereo partly drawn) | 1430 nM | – |
| 25100 nM | – | – | – | – | C=C1CC(CF)(c2ccccc2)OC1=O (racemic) | 13400 nM | – |

Second part, the compound before the results:

| Structure (SMILES) | IC50 [2] | IC50 [4] | IC50 [5] | IC50 [6] | IC50 [7] | IC50 [1] | IC50 [3] |
| --- | --- | --- | --- | --- | --- | --- | --- |
| C=C1CC2(CCCc3ccccc3C2Br)OC1=O (racemic) | 1270 nM | – | – | – | – | 1080 nM | – |
| C=C1CC[C@](CBr)(c2ccccc2)OC1=O | 10900 nM | – | – | – | – | 1330 nM | – |
| C=C1C[C@]2(CCCc3ccccc3[C@H]2Br)OC1=O | 3300 nM | – | – | – | – | 1200 nM | – |
| C=C1C[C@@](CCl)(c2ccccc2)OC1=O | 43000 nM | – | – | – | – | 21400 nM | – |
| C=C1C[C@]2(Cc3ccccc3[C@H]2Br)OC1=O | 2090 nM | – | – | – | – | 4390 nM | – |
| C=C1CC(CBr)(c2ccccc2F)OC1=O (racemic) | 1700 nM | – | – | – | – | 1300 nM | – |
| C=C1CC(CBr)(c2ccccc2OC)OC1=O (racemic) | 2400 nM | – | – | – | – | 1100 nM | – |
| C=C1CC(CBr)(c2ccccc2)OC1=O (racemic) | 1480 nM | – | – | – | – | 800 nM | – |
| C=C1CC(CO)(c2ccccc2)OC1=O (racemic) | 4060 nM | – | – | – | – | 2260 nM | – |
| C=C1C[C@](CCl)(c2ccccc2)OC1=O | 30600 nM | – | – | – | – | 9770 nM | – |
| C=C1C[C@](CBr)(c2ccccc2)OC1=O | 1330 nM | – | – | – | – | 970 nM | – |
| C=C1CC(CBr)(c2ccc(Cl)cc2)OC1=O (racemic) | 1100 nM | – | – | – | – | 1540 nM | – |
| C=C1CC(CBr)(c2ccc(OC)cc2)OC1=O (racemic) | 4200 nM | – | – | – | – | 2300 nM | – |
| C=C1CC(CBr)(c2ccc(F)cc2)OC1=O (racemic) | 800 nM | 30 µM | 2300 nM | 1680 nM | 64 µM | 600 nM | 2400 nM |
| C=CC(=O)Nc1cc(Nc2nccc(-c3cn(C)c4ccccc34)n2)c(OC)cc1N(C)CCN(C)C [OSIMERTINIB] | […] | – | 200 nM | 140 nM | – | 20 nM | 300 nM |
| C=C1C[C@]2(CCCC[C@H]2Br)OC1=O (racemic) | 21200 nM | – | – | – | – | 4550 nM | – |
| C=C1CC(CBr)(c2ccc(C)cc2)OC1=O (racemic) | 2200 nM | – | – | – | – | 1100 nM | – |
| C=C1CC(C(Br)c2ccccc2)OC1=O (racemic) | 20300 nM | – | – | – | – | 6200 nM | – |
| C=C1CC(C)(CBr)OC1=O (racemic) | 124000 nM | – | – | – | – | 32000 nM | – |
| C=C1CC(C[Se]c2ccccc2)(c2ccccc2)OC1=O (racemic) | 1270 nM | – | – | – | – | 1300 nM | – |
| C=C1C[C@]2(CCc3ccccc3[C@H]2Br)OC1=O | 4100 nM | – | – | – | – | 1220 nM | – |
